Patent US7012041B2, “Phenylpyridazinones” (Bayer AG, priority 1995, dated 2006)

Assays:
Assay type in all cases: in vivo
Maize = assay: Pre-emergence test/greenhouse; settings: after three weeks
Method: (§1) • Solvent: 5 parts by weight of acetone • Emulsifier: 1 part by weight of alkylaryl polyglycol ether
(§2) To produce a suitable preparation of active compound, 1 part by weight of active compound is mixed with the stated amount of solvent, the stated amount of emulsifier is added and the concentrate is diluted with water to the desired concentration.
(§3) Seeds of the test plants are sown in normal soil. After 24 hours, the soil is watered or sprayed with the preparation of the active compound. It is advantageous to keep the amount of water per unit area constant. The concentration of the active compound in the preparation is immaterial, only the amount of active compound applied per unit area matters.
(§4) After three weeks, the degree of damage to the plants is rated in % damage by comparison with the development of the untreated control.
(§5) The figures denote: • 0%=no effect (like untreated control) • 100%=total destruction

Abutilon = assay: Pre-emergence test/greenhouse; settings: for % damage Abutilon: after three weeks; for activity against Abutilon (% damage): application rate between 125 and 500 g/ha, span over the named compounds
Method: as §1, §2, §3, §4, §5

Solanum = assay: Pre-emergence test/greenhouse; settings: after three weeks
Method: as §1, §2, §3, §4, §5

Sunflower = assay: Pre-emergence test/greenhouse; settings: after three weeks
Method: as §1, §2, §3, §4, §5

Chenopodium [1] = assay: Pre-emergence test/greenhouse; settings: after three weeks
Method: as §1, §2, §3, §4, §5

Galinsoga = assay: Pre-emergence test/greenhouse; settings: after three weeks
Method: as §1, §2, §3, §4, §5

Datura = assay: Post-emergence test/greenhouse; settings: after three weeks
Method: as §1, §2
(§6) Test plants which have a height of 5–15 cm are sprayed with the preparation of the active compound in such a way as to apply the particular amounts of active compound desired per unit area.
as §4, §5

Amaranthus = assay: Post-emergence test/greenhouse; settings: after three weeks
Method: as §1, §2, §6, §4, §5

Veronica = assay: Post-emergence test/greenhouse; settings: after three weeks
Method: as §1, §2, §6, §4, §5

Chenopodium [2] = assay: Post-emergence test/greenhouse; settings: after three weeks
Method: as §1, §2, §6, §4, §5

Wheat = assay: Post-emergence test/greenhouse; settings: after three weeks
Method: as §1, §2, §6, §4, §5

Polygonum = assay: Post-emergence test/greenhouse; settings: after three weeks
Method: as §1, §2, §6, §4, §5

SMILES	% damage Maize (Maize; 500 g ai/ha) [%]	% damage Abutilon (Abutilon; 500 g ai/ha) [%]	% damage Solanum (Solanum; 500 g ai/ha) [%]	% damage Sunflower (Sunflower; 500 g ai/ha) [%]	% damage Chenopodium (Chenopodium [1]; 500 g ai/ha) [%]	% damage Galinsoga (Galinsoga; 500 g ai/ha) [%]	% damage Galinsoga (Galinsoga; 250 g ai/ha) [%]	% damage Maize (Maize; 250 g ai/ha) [%]	% damage Abutilon (Abutilon; 250 g ai/ha) [%]	activity against Abutilon (% damage) (Abutilon) [%]	% damage Solanum (Solanum; 250 g ai/ha) [%]	other results
Nc1cnn(-c2ccccc2)c(=O)c1Cl [(A), 5-Amino-4-chloro-2-phenyl-pyridazin-3-one, reference compound]	0	20	40	100	50							
Cc1cnn(-c2ccccc2)c(=O)c1Br [(B), 4-Bromo-5-methyl-2-phenyl-pyridazin-3-one, reference compound]	0	0	50	0	50	30						% damage Datura (Datura; 250 g ai/ha): 80%; % damage Amaranthus (Amaranthus; 250 g ai/ha): 30%; % damage Veronica (Veronica; 250 g ai/ha): 40%; % damage Chenopodium (Chenopodium [2]; 250 g ai/ha): 50%; % damage Wheat (Wheat; 250 g ai/ha): 30%; % damage Polygonum (Polygonum; 250 g ai/ha): 50%
Cc1cnn(-c2cc(F)c(C#N)cc2F)c(=O)c1 [Example 3, 2-(2,5-difluoro-4-cyano-phenyl)-5-methyl-pyridazin-3-one]							100	0	100	100	90	% damage Sunflower (Sunflower; 250 g ai/ha): 0%
C#CCOc1cc(-n2nc(C)ccc2=O)c(F)cc1C#N [Example 7, 2-(2-fluoro-4-cyano-5-propargyloxy-phenyl)-6-methyl-pyridazin-3-one]							95	0	100	100	100	% damage Sunflower (Sunflower; 250 g ai/ha): 20%; % damage Chenopodium (Chenopodium [1]; 250 g ai/ha): 100%
C#CC(C)Oc1cc(-n2ncc(C)cc2=O)c(F)cc1C#N (stereo not drawn) [Example 8, 2-(2-fluoro-4-cyano-5-but-1-ine-3-yl-oxy-phenyl)-5-methyl-pyridazin-3-one]							100	0	100	100	100	% damage Sunflower (Sunflower; 250 g ai/ha): 0%; % damage Chenopodium (Chenopodium [1]; 250 g ai/ha): 100%; % damage Datura (Datura; 60 g ai/ha): 100%; % damage Amaranthus (Amaranthus; 60 g ai/ha): 90%; % damage Veronica (Veronica; 60 g ai/ha): 100%; % damage Chenopodium (Chenopodium [2]; 60 g ai/ha): 95%; % damage Wheat (Wheat; 60 g ai/ha): 0%; % damage Polygonum (Polygonum; 60 g ai/ha): 100%
CCS(=O)(=O)Nc1cc(-n2nc(C)ccc2=O)c(F)cc1C#N [Example 15]	0	100	95	0	100	80				100		% damage Datura (Datura; 250 g ai/ha): 90%; % damage Amaranthus (Amaranthus; 250 g ai/ha): 100%; % damage Veronica (Veronica; 250 g ai/ha): 95%; % damage Chenopodium (Chenopodium [2]; 250 g ai/ha): 95%; % damage Wheat (Wheat; 250 g ai/ha): 5%; % damage Polygonum (Polygonum; 250 g ai/ha): 80%
C#CC(C)Oc1cc(-n2nc(C)ccc2=O)c(F)cc1C#N (stereo not drawn) [Example 16]	10	100	100	20	100	100				100		% damage Datura (Datura; 60 g ai/ha): 100%; % damage Amaranthus (Amaranthus; 60 g ai/ha): 100%; % damage Veronica (Veronica; 60 g ai/ha): 90%; % damage Chenopodium (Chenopodium [2]; 60 g ai/ha): 95%; % damage Wheat (Wheat; 60 g ai/ha): 5%; % damage Polygonum (Polygonum; 60 g ai/ha): 95%
CCS(=O)(=O)Nc1cc(-n2ncc(NC)c(Cl)c2=O)c(F)cc1C#N [Example 25]	0	100	60		90	100				100		
C#CC(CC)Oc1cc(-n2nc(C)ccc2=O)c(F)cc1C#N (stereo not drawn) [Example 29]	0	100	100	0	100	100				100		
CCS(=O)(=O)Nc1cc(-n2ncc(C)cc2=O)c(F)cc1C#N [Example 31]							80	0	100	100	100	% damage Sunflower (Sunflower; 250 g ai/ha): 0%; % damage Datura (Datura; 60 g ai/ha): 100%; % damage Amaranthus (Amaranthus; 60 g ai/ha): 100%; % damage Veronica (Veronica; 60 g ai/ha): 90%; % damage Chenopodium (Chenopodium [2]; 60 g ai/ha): 80%; % damage Wheat (Wheat; 60 g ai/ha): 5%; % damage Polygonum (Polygonum; 60 g ai/ha): 90%
CCS(=O)(=O)Nc1cc(-n2ncc(C)cc2=O)c(Cl)cc1Cl [Example 34]	0	100	90	20	100	100				100		
C#CC(CC)Oc1cc(-n2ncc(C)cc2=O)c(F)cc1C#N (stereo not drawn) [Example 35]							100	0	100	100	100	% damage Chenopodium (Chenopodium [1]; 250 g ai/ha): 100%; % damage Datura (Datura; 60 g ai/ha): 100%; % damage Amaranthus (Amaranthus; 60 g ai/ha): 95%; % damage Veronica (Veronica; 60 g ai/ha): 95%; % damage Chenopodium (Chenopodium [2]; 60 g ai/ha): 95%; % damage Wheat (Wheat; 60 g ai/ha): 20%; % damage Polygonum (Polygonum; 60 g ai/ha): 90%
Cc1cnn(-c2cc(OC(C)C)c(C#N)cc2F)c(=O)c1 [Example 36]							90	10	100	100	100	% damage Chenopodium (Chenopodium [1]; 250 g ai/ha): 100%
C#CCOc1cc(-n2ncc(C)cc2=O)c(F)cc1C#N [Example 37]												% damage Datura (Datura; 125 g ai/ha): 100%; % damage Amaranthus (Amaranthus; 125 g ai/ha): 100%; % damage Veronica (Veronica; 125 g ai/ha): 100%; % damage Chenopodium (Chenopodium [2]; 125 g ai/ha): 100%; % damage Wheat (Wheat; 125 g ai/ha): 20%; % damage Polygonum (Polygonum; 125 g ai/ha): 100%
C#CCOc1cc(-n2ncc(N(C)C)c(Cl)c2=O)c(F)cc1C#N [Example 41]										100		% damage Galinsoga (Galinsoga; 125 g ai/ha): 100%; % damage Maize (Maize; 125 g ai/ha): 10%; % damage Abutilon (Abutilon; 125 g ai/ha): 100%; % damage Solanum (Solanum; 125 g ai/ha): 100%; % damage Sunflower (Sunflower; 125 g ai/ha): 0%; % damage Chenopodium (Chenopodium [1]; 125 g ai/ha): 100%; % damage Datura (Datura; 250 g ai/ha): 100%; % damage Amaranthus (Amaranthus; 250 g ai/ha): 60%; % damage Veronica (Veronica; 250 g ai/ha): 100%; % damage Chenopodium (Chenopodium [2]; 250 g ai/ha): 90%; % damage Wheat (Wheat; 250 g ai/ha): 20%; % damage Polygonum (Polygonum; 250 g ai/ha): 100%
